In data set [1] the target is T1, His6-Flag-TEV-NLRP3 (134-1036) (Homo sapiens, UniProt Q96P20).
T1 construct: fused on or other part: N-terminal His6 tag, Flag tag and TEV cleavage site
Put plainly: NLRP3 fluorescence polarization (FP) binding assay, competition with probe NP3-301. Particulars: competition with NP3-301 for binding to NLRP3 (134-1036), 30 nM protein. The procedure:
This experiment uses fluorescence polarization technology to detect and evaluate the binding assay.
The fluorescent probe used in this assay is the compound NP3-301 in the Journal of Molecular Biology (2021) 433, 167309, which was synthesized with reference to this literature.
His6-Flag-TEV-NLRP3 (134-1036) protein (SEQ NO. 1) was purchased from Kaihuiruizhi Biotech (Shanghai) Co., Ltd. (ChemPartner), and was customed for expression.
Prepare 1× assay buffer: 50 mM Hepes, pH 7.4, 150 mM NaCl, 2.5 mM MgCl2, 0.005% Tween-20, 1 mM TCEP, 100 μM ATP.
First, 2.5 μL of 4× compound solution was added to a black shallow 384-well plate (Greiner, 784076), the shallow well plate was sealed, and centrifuged at 1000 rpm for 1 min; then 2× NLPR3 protein solution (final concentration of 30 nM) was added, the shallow well plate was sealed, centrifuged at 1000 rpm for 1 min, and incubated at room temperature for 60 min. Finally, 2.5 μL of 4× NP3-301 (final concentration of 0.5 nM) was added, the shallow well plate was sealed, centrifuged at 1000 rpm for 1 min, and incubated at room temperature for 30 min. Envision was used to read the fluorescence polarization values of λex=485+20 nm and kem=535+25 nm. GraphPad Prism 9.5.0 was used to analyze the data, and the IC50 value of the competition between the compound and NP3-301 for binding to His6-Flag-TEV-NLRP3 (134-1036) was fitted by four-parameter logistic. The compounds of the present disclosure have good NLRP3 binding activity, and the test results of some representative compounds are shown in Table 1.
A general note: In fluorescence polarisation assays a small probe gives low polarisation when free and higher when bound to something large.

In data set [2] the test system is IL-1β secretion of THP-1 cells. Nature of the data set: Effect of NLRP3 inhibitor on IL-1β secretion of THP-1 cells (AlphaLISA). It is filed as cell-based. Conditions: Homo sapiens; PMA, LPS and Nigericin stimulated THP-1 cells, IL-1β in supernatant; read-out: IC50 (nM), THP-1 cells to detect NLRP3 inhibitors. As for the experimental part: This experiment used the PerkinElmer AlphaLISA_human_IL1β kit (AL220 C/F). The detection buffer was RPMI-1640+10FBS. AlphaLISA Immunoassay Buffer, AlphaLISA Anti-IL1β Acceptor beads, Streptavidin (SA)-coated Donor beads, and Biotinylated Antibody Anti-IL1β were all included in the kit.
The density of THP1 cells was adjusted to 4×10^5 cells/mL, PMA (final concentration 50 nM) was added, inoculated into 96-well flat-bottom plates at 200 μL/well, and stimulated overnight at 37° C., 5% CO2 (try to <16h). The next day, the supernatant was discarded, and the flat washed twice with DPBS ([…]/time). Then LPS solution (final concentration of 100 ng/ml) was added at 198 μL/well, incubated at 37° C., 5% CO2 for 3h. 1 μL of the corresponding concentration of compounds was added to each well according to the experimental MAP, incubated at 37° C., 5% CO2 for 1 h. 1 μL Nigericin (final concentration of […]) was added to each well, incubated overnight at 5% CO2 (>18h). On the third day, 5 μL of supernatant was taken, diluted 20 times, and the content of IL-Iβ in the supernatant was detected by Human Interleukin 1 beta (IL1β) Kit. Envision was used to read the AlphaLISA test value of Ex=680/[…]. GraphPad Prism 9.5.0 was used to analyze the data, and the IC50 value of the compound for IL-Iβ antagonism was fitted by four-parameter Logistic.
(Alpha assays give light when donor and acceptor beads are brought close together.)

The test system of data set [3] is iodoacetic acid (MIA)-induced SD rat knee osteoarthritis model. Nature of the data set: Iodoacetic acid (MIA)-induced SD rat knee osteoarthritis model. In kind it is in vivo, SD rats. Particulars: 30 mg/kg orally once a day from Day 7 to Day 42. As for the experimental part: Purpose: Evaluate the efficacy of MCC950 (Positive reference compound) and compound 111 of the present disclosure on iodoacetic acid (MIA)-induced SD rat knee osteoarthritis model.
Experimental materials: Experimental male SD rats, 4 weeks old.
Model induction began after the experimental animals were adapted to the animal environment for 7 days. Day 0, the rats were anesthetized, the hair around the left knee joint was removed, and the skin was disinfected. The left leg was flexed 90° to expose the patellar platform. The depression in the middle of the platform was touched by hand to find the femoral condyle, patella and ligament. The syringe needle was inserted from the bottom of the patella on both sides of the patellar ligament to the direction of the femoral condyle. When a clear sense of empty space was felt, 50 μL of iodoacetic acid solution was injected. Day 7 Grouping was performed according to the width of the knee joint on the induced side. The groups were: normal control group (healthy control without modeling, 5% DMSO+10% Solutol+85% Saline), model blank control group (5% DMSO+10% Solutol+85% Saline), MCC950 30 mg/kg, and compound 111 of the present disclosure 30 mg/kg. Starting from Day 7, the normal control group and the model blank control group were given the solvent (5% DMSO+10% Solutol+85% Saline) orally once a day, and the other groups were given the corresponding compounds orally once a day until the end of the administration on Day 42. The knee joint width and body weight of the rats were measured once on Day 7, 14, 21, 28, 35, and 42.

The values that follow come from US20260234150A1, “COMPOUND FOR INHIBITING NLRP3, PREPARATION METHOD, AND USE” (DOVETREE MEDICINES UNUS, INC., priority 2023, published 2026).

T1 sequence (Q96P20 134-1036 limits assumed): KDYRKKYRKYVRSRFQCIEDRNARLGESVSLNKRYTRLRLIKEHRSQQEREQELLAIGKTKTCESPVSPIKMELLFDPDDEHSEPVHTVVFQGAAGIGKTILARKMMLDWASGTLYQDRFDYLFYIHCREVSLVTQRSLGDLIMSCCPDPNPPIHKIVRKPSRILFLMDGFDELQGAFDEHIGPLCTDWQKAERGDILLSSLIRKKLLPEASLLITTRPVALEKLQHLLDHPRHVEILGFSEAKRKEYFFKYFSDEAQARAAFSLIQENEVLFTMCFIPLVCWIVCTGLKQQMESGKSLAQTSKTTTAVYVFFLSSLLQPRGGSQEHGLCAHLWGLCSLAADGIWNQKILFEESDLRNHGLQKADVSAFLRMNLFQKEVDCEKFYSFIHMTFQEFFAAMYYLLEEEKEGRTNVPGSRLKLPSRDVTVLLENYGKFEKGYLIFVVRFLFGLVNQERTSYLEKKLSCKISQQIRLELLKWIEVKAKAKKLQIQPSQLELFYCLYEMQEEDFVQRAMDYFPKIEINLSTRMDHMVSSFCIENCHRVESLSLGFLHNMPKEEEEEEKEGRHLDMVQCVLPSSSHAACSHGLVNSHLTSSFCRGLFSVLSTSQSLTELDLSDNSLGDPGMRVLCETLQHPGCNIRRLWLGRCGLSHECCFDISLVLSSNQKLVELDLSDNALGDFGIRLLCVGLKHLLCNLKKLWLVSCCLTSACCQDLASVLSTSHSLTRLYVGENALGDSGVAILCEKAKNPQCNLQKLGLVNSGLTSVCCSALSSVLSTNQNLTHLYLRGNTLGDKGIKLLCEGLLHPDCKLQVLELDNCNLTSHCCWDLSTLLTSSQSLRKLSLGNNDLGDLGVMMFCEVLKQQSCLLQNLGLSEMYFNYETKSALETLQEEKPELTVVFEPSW

As usually defined, the IC50 is the point on the concentration scale where inhibition reaches its midpoint. Turning to `CCN1C[C@H](F)C[C@@H](Nc2nc3nc(-c4c(C)cc(C(F)(F)F)cc4O)ccc3o2)C1` [Compound 397], the IC50 in data set [1] was at most 100 nM; in data set [2] it was 100 to 500 nM.
The matching figures for `CC(=O)NC[C@@H]1COCCN1c1nc2nc(-c3c(C)cc(C(F)(F)F)cc3O)cc(C)n2n1` [Compound 441]: at most 100 nM and below 50 nM.
The matching figures for `Cc1cc(C(F)(F)F)cc(O)c1-c1ccc2oc(NC[C@@H]3COCCN3C(=O)C3CC3)nc2n1` [Compound 257]: at most 100 nM and below 50 nM.
Regarding `CCN1CCC[C@@H](N2CC(=O)Nc3cc(-c4c(C)cc(C(F)(F)F)cc4O)nnc32)C1` [Compound 12-a], the IC50 in data set [1] is at most 100 nM; in data set [2], below 50 nM.
As for `CC(C)(O)c1coc(S(=O)(=O)NC(=O)Nc2c3c(cc4c2CCC4)CCC3)c1` [MCC950], in data set [3], the “body weight of the rats” value is on record as “without affecting the body weight of the rats”. The “widening of the knee joints (knee joint width)” value in data set [3] (compared with model blank control group, 21 days to 42 days after modeling) is “could significantly inhibit the widening of the knee joints”.
Turning to `Cc1cc(C(F)(F)F)cc(O)c1-c1cc(C)c2nc(N[C@@H]3CCCN(CCO)C3)nn2n1` [Compound 456], the IC50 in data set [1] is at most 100 nM; in data set [2], below 50 nM.
For `Cc1cc(C(F)(F)F)cc(O)c1-c1ccc2oc(N3CC4CCC(C3)O4)nc2n1` [Compound 381] the same measures were at most 100 nM and 100 to 500 nM.
The matching figures for `Cc1cc(C(F)(F)F)cc(O)c1-c1ccc2nc(N[C@@H]3CCCN(C)C3)nn2n1` [Compound 445]: at most 100 nM and below 50 nM.
For `Cc1cc(C(F)(F)F)cc(O)c1-c1ccc2oc(N3CCN(S(=O)(=O)C4CC4)CC3)nc2n1` [Compound 392] the same measures were at most 100 nM and below 50 nM.
As for `Cc1cc(C(F)(F)F)cc(O)c1-c1ccc2oc(N)nc2n1` [Compound 14], the half-maximal inhibitory concentration (IC50) in data set [1] is at most 100 nM; in data set [2], 50 to 100 nM.
For `Cc1cc(C(F)(F)F)cc(O)c1-c1ccc2nc(N3CCOCC3)nn2n1` [Compound 423] the same measures were at most 100 nM and 100 to 500 nM.
The matching figures for `Cc1cc(C(F)(F)F)cc(O)c1-c1ccc2oc(N[C@@H]3CCCN(C(C)C)C3)nc2n1` [Compound 400]: at most 100 nM and below 50 nM.
For `CCN1CCC[C@@H](Nc2nc3nc(-c4c(C)cc(C(F)(F)F)cc4O)ccn3n2)C1` [Compound 448] the same measures were at most 100 nM and below 50 nM.
Regarding `Cc1cc(C(F)(F)F)cc(O)c1-c1cc(C)c2nc(N[C@@H]3CCCN(C)C3)nn2n1` [Compound 446], the IC50 in data set [1] was at most 100 nM; in data set [2], below 50 nM.
`Cc1cc(C(F)(F)F)cc(O)c1-c1ccc2oc(NC[C@@H]3COCCN3C(=O)C(F)F)nc2n1` [Compound 249]: the IC50 in data set [1] was at most 100 nM; in data set [2], 100 to 500 nM.
For the compound `Cc1cc(C(F)(F)F)cc(O)c1-c1ccc2oc(NC[C@@H]3COCCN3C(=O)C(C)C)nc2n1` [Compound 248], the 50% inhibitory concentration (IC50) in data set [1] is at most 100 nM; in data set [2], 100 to 500 nM.
`Cc1cc(Cl)cc(O)c1-c1ccc2oc(N3CCS(=O)(=O)CC3)nc2n1` [Compound 387]: the half-inhibitory concentration (IC50) in data set [1] is at most 100 nM; in data set [2], 50 to 100 nM.
For `Cc1cc(C(F)(F)F)cc(O)c1-c1ccc2oc(N3CCOC[C@H]3C)nc2n1` [Compound 371] the same measures were at most 100 nM and 50 to 100 nM.
The matching figures for `CC(=O)N1CCOC[C@H]1CNc1nc2nc(-c3c(C)cc(C(F)(F)F)cc3O)cc(C)c2o1` [Compound 451]: at most 100 nM and 50 to 100 nM.
For `Cc1cc(C(F)(F)F)cc(O)c1-c1cc(C)c2nc(N3CCOCC3)nn2n1` [Compound 424] the same measures were at most 100 nM and below 50 nM.
With `CCC(=O)N1CCOC[C@H]1CNc1nc2nc(-c3c(C)cc(C(F)(F)F)cc3O)ccc2o1` [Compound 250], the IC50 in data set [1] is at most 100 nM; in data set [2] it was 100 to 500 nM.
The matching figures for `CC(=O)N1CCOC[C@H]1CNc1nc2nc(-c3c(C)cc(Cl)cc3O)ccc2o1` [Compound 253]: at most 100 nM and below 50 nM.
Consider `Cc1cc(C(F)(F)F)cc(O)c1-c1cc(C)n2nc(N[C@@H]3CCCN(C)C3)nc2n1` [Compound 443], for which the values for the IC50 in data set [1] and in data set [2] were at most 100 nM and below 50 nM, respectively.
